{
  "source": "patent US9458213B2",
  "about": "“Compositions and methods for diagnosing prostate cancer based on detection of SLC45A3-ELK4 fusion transcript” (CORNELL UNIVERSITY, priority 2009, dated 2016)",
  "key": {"[1]": {"system": "endogenous ELK4 mRNA in LNCaP cells", "experiment": "Hormonal treatment of LNCaP cells, quantitative RT-PCR (TAQMAN) of endogenous ELK4", "type": "cell-based, human", "procedure": "(§1) FIGS. 4a-4c. Androgen stimulation of LNCaP cells and induction of SLC45A3-ELK4 (FIG. 4a), endogenous ELK4 (FIG. 4b) mRNA and KLK3 (PSA) mRNA (FIG. 4c). Bar charts are the average fold induction in LNCaP cells treated with 1nM R1881 in the absence (black bars) or presence (gray bars) of 10 μM flutamide at the indicated time points. For flutamide treatment cells were pre-treated 2 hours with 10 μM flutamide, medium was removed and the fresh medium plus 1 nM R1881 plus 10 μM flutamide were given for the indicated time points. All experiments were run in triplicates (standard deviation indicated by the error bars).\n(§2) Quantitative RT-PCR using TAQMAN technology. To quantify SLC45A3-ELK4 and endogenous ELK4 transcripts, custom designed primers and probes (SLC45A3-ELK4: primers in SLC45A3 exon 1 and ELK4 exon 2, probe in ELK4 exon 2) were employed in (ELK4, Hs00360812_m1) TAQMAN Gene Expression Assays (Applied Biosystems, Foster City, Calif.) for improved sensitivity and specificity of detection. […] Each target was run in triplicate and expression levels were calculated using the comparative Ct method (ABI Bulletin 2, Applied Biosytems) with TCFL1 as a reference gene and given as fold change over the average expression levels of benign samples. […]"}, "[2]": {"system": "SLC45A3-ELK4 mRNA in LNCaP cells", "experiment": "Hormonal treatment of LNCaP cells, quantitative RT-PCR (TAQMAN) of SLC45A3-ELK4 fusion transcript", "type": "cell-based, human", "procedure": "as §1, §2"}, "[3]": {"settings": "LNCaP cells treated with R1881 (summary statement)"}, "[4]": {"settings": "LNCaP cells, R1881 1 nM, twelve hours following treatment"}},
  "data": [
    {"smiles": "C[C@]1(O)CC[C@H]2[C@@H]3CCC4=CC(=O)CCC4=C3C=C[C@@]21C", "note": "[R1881]", "values": [
      {"measurement": "regulation of endogenous ELK4 mRNA upon treatment", "setting": "[1]; [3]", "value": "not endogenous ELK4 mRNA, was up-regulated"},
      {"measurement": "change in ELK4 (assay not targeting the fusion transcript)", "setting": "[1]; [4]", "value": "no change"},
      {"measurement": "regulation of SLC45A3-ELK4 mRNA upon treatment", "setting": "[2]; [3]", "value": "up-regulated"},
      {"measurement": "induction of SLC45A3-ELK4", "setting": "[2]; [4]", "value": 25, "unit": "fold"}
    ]}
  ]
}
